In the oligonucleotide strings, read from the 5' end, every base follows the letter of its sugar. An asterisk marks phosphorothioate; unmarked linkages are phosphodiester. Other units and linkages are bracketed, terminal groups are in braces. A string of capitals states the bases alone. r = 2'-OH (RNA); f = 2'-fluoro
B1: GGGAGGACGAUGCGGUACUUUCGGGCUUUCGGCAACAUCAGCCCCUCAGGACGCAAUUUCUC (nucleic acid)
chain: rGrGrGrArGrGrAfCrGrAfUrGfCrGrGfUrAfCfUfUfUfCrGrGrGfCfUfUfUfCrGrGfCrArAfCrAfUfCrArGfCfCfCfCfUfCrArGrGrAfCrGfCrArAfUfUfUfCfUfC
modifications: Alexa 647 label attached, position not given here, further chemistry not fully specified
notes: truncation of iNA E3, 62 bases
B2: D11: RNA iNA clone from Round 14 toggle selection, variable region SEQ ID NO:20 UCCCCGGAUUUCGGAUACGAUCCCUCAUCCCUUGACCGCA, 2′ fluoro pyrimidines (nucleic acid)
chain: rGrGrGrArGrGrAfCrGrAfUrGfCrGrGfUfCfCfCfCrGrGrAfUfUfUfCrGrGrAfUrAfCrGrAfUfCfCfCfUfCrAfUfCfCfCfUfUrGrAfCfCrGfCrArAfUfUfUfCfUfCfCfUrAfCfUrGrGrGrAfUrArGrGfUrGrGrAfUfUrAfU
modifications: Alexa 647 attached for internalization assay, further chemistry not fully specified

Experiments:
[1] = system: human prostate cancer cell line PC-3; experiment: Flow cytometric-based screening assay for internalization in PC-3 cells; format: cell-based
Method: In illustrating a screening process for internalization, from clones selected for further analysis from the selection process, a flow cytometric-based assay for binding and/or internalization was utilized. Typically, the assay was performed by incubating 200 nM of each clone with 5×10^5 target cells in 100 ul PBS containing 0.5% bovine serum albumin (BSA) in a 13 mm tube for 2 hours @ 37° C. A first portion of the cells was then treated with RNAse to remove any of the clone remaining bound to the surface of the cells, so as to allow detection and quantitation of internalized clone (i.e., measuring internalization). In parallel, a second portion of the cells was treated with PBS containing 0.5% BSA (lacking added RNase activity to enzymatically cleave […]), so as to allow detection and quantitation of clone remaining bound to the cell surface, as well as internalized clone (i.e., measuring binding and internalization). Following further washes with phosphate-buffered saline, the cells were fixed in 1% formaldehyde and then subjected to analysis on a flow cytometer using commercially available analysis software. In performing analyses by flow cytometry, several assay controls were used. As an assay control representing either no or background (e.g., non-specific) internalization, an RNA molecule resulting from a selection process for binding a molecule not detectably expressed on target cells was used. The assay control RNA molecule was further modified with Alexa 647, and then used for further characterization of clones from the selection process described herein. For ease of description and reference for this Example, this assay control RNA molecule is referred to herein as Negative Control 1 (see, e.g., Table 5). As an additional assay control that represents either no or background internalization, used was an RNA molecule from the starting library which was chosen from the library prior to beginning a selection method described herein, and that was further modified with Alexa 647. This assay control RNA molecule is referred to herein as Negative Control 2 (see, e.g., Tables 5, 7, and 8). Additionally, fluorescence of unstained cells was measured, as a control, to quantitate any background fluorescent properties of the cells themselves as encountered in analyses by flow cytometry (“Unstained”), as opposed to fluorescent signal mediated by the RNA molecules further modified to include Alexa 647. Shown in Table 5 are the results of analyses by flow cytometry in which measured and quantitated was the ability of clones, selected on the basis of sequence convergence, to internalize into target cells represented by human prostate cancer cell line PC-3. The units of fluorescence in Table 5 represent mean fluorescence (“Mean”). The fold increase (determined by dividing the mean fluorescence of a clone by the mean fluorescence of unstained cells) is an indicator of the ability of a clone, or a clone which has been further modified to include an effector moiety, to internalize into the target cells (Table 5; “Fold Increase”).
The truncations, illustrated in Table 6, were each further modified with a detectable moiety, Alexa 647, and analyzed by a flow cytometric-based screening assay for internalization using the methods outlined in Example 2, to determine minimal sequences that maintain the full ability to internalize into human prostate cancer cells. Shown in Table 7 are the results of analyses by flow cytometry in which measured and quantitated was the ability of each truncation to internalize into target cells represented by human prostate cancer cell line PC-3. The units of fluorescence in Table 7 represent mean fluorescence intensity (“Mean”). […]

[2] = system: K562 human chronic myelogenous leukemia; experiment: Flow cytometric binding and internalization assay, K562; format: cell-based; settings: K562, malignant
Method: (§1) In illustrating a screening process for internalization, from clones selected for further analysis from the selection process, a flow cytometric-based assay for binding and/or internalization was utilized. Typically, the assay was performed by incubating 200 nM of each clone with 5×10^5 target cells in 100 ul PBS containing 0.5% bovine serum albumin (BSA) in a 13 mm tube for 2 hours @ 37° C. A first portion of the cells was then treated with RNAse to remove any of the clone remaining bound to the surface of the cells, so as to allow detection and quantitation of internalized clone (i.e., measuring internalization). In parallel, a second portion of the cells was treated with PBS containing 0.5% BSA (lacking added RNase activity to enzymatically cleave […]), so as to allow detection and quantitation of clone remaining bound to the cell surface, as well as internalized clone (i.e., measuring binding and internalization). […] Additionally, fluorescence of unstained cells was measured, as a control, to quantitate any background fluorescent properties of the cells themselves as encountered in analyses by flow cytometry (“Unstained”), as opposed to fluorescent signal mediated by the RNA molecules further modified to include Alexa 647. […] The units of fluorescence in Table 5 represent mean fluorescence (“Mean”). […]

[3] = system: A549 human lung adenocarcinoma; experiment: Flow cytometric binding and internalization assay, A549; format: cell-based; settings: A549, malignant
Method: as §1

[4] = system: MCF7 human breast adenocarcinoma; experiment: Flow cytometric binding and internalization assay, MCF7; format: cell-based; settings: MCF7, malignant
Method: as §1

[5] = system: WIL-2 B lymphoblastoid cell line transformed with Epstein Barr virus; experiment: Flow cytometric binding and internalization assay, WIL-2; format: cell-based, human; settings: WIL-2, transformed cells
Method: as §1

[6] = system: PrEC human primary prostate epithelial cells; experiment: Flow cytometric binding and internalization assay, PrEC; format: cell-based; settings: nonmalignant
Method: as §1

[7] = Table 7, truncations modified with Alexa 647, PC-3
[8] = Table 8, mutants of E3-45, PC-3

| Molecule | Fold increase (mean fluorescence intensity / unstained cells) [1, 7] | Mean (mean fluorescence intensity) [1, 7] | Fold increase (mean fluorescence intensity / unstained cells) [1, 8] | Mean (mean fluorescence intensity) [1, 8] | ability to bind and internalize as compared to wildtype iNA (E3-45) ([1]; PC-3, in words) | also measured |
| --- | --- | --- | --- | --- | --- | --- |
| GGGAGGCUGGGCUUUCGGCAAC (rGrGrGrArGrGfCfUrGrGrGfCfUfUfUfCrGrGfCrArAfC; aptamer; Alexa 647 label attached, position not given here, further chemistry not fully specified) [E3-22, truncation of iNA E3, 22 bases] | 1.0 | 80.7 | – | – | – | – |
| GGGAGGCUUUCGGGCUUUCGGCAACAUCAGCC (rGrGrGrArGrGfCfUfUfUfCrGrGrGfCfUfUfUfCrGrGfCrArAfCrAfUfCrArGfCfC; aptamer; Alexa 647 label attached, position not given here, further chemistry not fully specified) [E3-32, truncation of iNA E3, 32 bases] | 11.8 | 944 | – | – | – | – |
| GGGUGCGGUACUUUCGGGCUUUCGGCAACAUCAGCCCCUCAGGACG (rGrGrGfUrGfCrGrGfUrAfCfUfUfUfCrGrGrGfCfUfUfUfCrGrGfCrArAfCrAfUfCrArGfCfCfCfCfUfCrArGrGrAfCrG; aptamer; Alexa 647 label attached, position not given here, further chemistry not fully specified) [E3-45, truncation of iNA E3, 45 bases; wildtype for mutants 1-8] | 8.6 | 690 | 5.4 | 470 | – | – |
| mutant 1: assay control mutant of E3-45, mutation in a loop not containing the conserved motif UUUCGG (GGGUGCGAAACUUUCGGGCUUUCGGCAACAUCAGCCCCUCAGACCG; listed as RNA, chemistry not fully specified) | – | – | 4.7 | 405 | ability to internalize equally | – |
| mutant 2: mutant of E3-45 with the conserved motif UUUCGG mutated in a loop portion (GGGUGCGGUACUAAAGGGCUUUCGGCAACAUCAGCCCAAAAGGACG; aptamer; listed as RNA, chemistry not fully specified) | – | – | 1.5 | 127 | loss of the ability to bind and internalize | – |
| mutant 3: mutant of E3-45 with the conserved motif UUUCGG mutated in a loop portion (GGGUGCGGUACUUUCGGGCUAAAGGCAACAUCAGCCCCUCAGGACG; aptamer; listed as RNA, chemistry not fully specified) | – | – | 1.6 | 142 | loss of the ability to bind and internalize | – |
| mutant 4: mutant of E3-45 with the conserved motif UUUCGG mutated in a loop portion (GGGUGCGGUACUUUCGGGCUUUCAAAAACAUCAGCCCCUCAGGACG; aptamer; listed as RNA, chemistry not fully specified) | – | – | 2.0 | 176 | loss of the ability to bind and internalize | – |
| mutant 5: site-directed mutant of E3-45 in a loop portion containing a conserved motif (GGGUGCGGUACUUUCGGGCUUUCGGCUUUAUCAGCCCCUCAGGACG; listed as RNA, further chemistry not given here) | – | – | 1.9 | 164 | – | – |
| mutant 6: site-directed mutant of E3-45 in a loop portion containing a conserved motif (GGGUGCGGUACUUUCGGGCUUUCGGCCCCAUCAGCCCCUCAGGACG; listed as RNA, further chemistry not given here) | – | – | 1.9 | 167 | – | – |
| mutant 7: site-directed mutant of E3-45 in a loop portion containing a conserved motif (GGGUGCGGUACUUUCGGGCUUUCGGCAACUAUAGCCCCUCAGGACG; listed as RNA, further chemistry not given here) | – | – | 1.8 | 153 | – | – |
| mutant 8: mutant of E3-45 with loop portion mutated to 5′ to 3′ UUUCGAG (GGGUGCGGUACUUUCGGGCUGGCACUUUCGAAAGCCCCUCAGGACG; listed as RNA, chemistry not fully specified) | – | – | 1.5 | 130 | loss of binding and internalization | – |
| B1 | 10.7 | 858 | – | – | – | – |
| B2 | – | – | – | – | – | internalization into cells (conclusion from Table 5) ([1]; PC-3, in words): mediate internalization into cells; Fold Increase (mean fluorescence of clone / unstained cells) ([1]; Table 5, 200 nM Alexa 647-modified clone, 2 hours @ 37° C., PC-3): 5.8; Mean (mean fluorescence) ([1]; Table 5, 200 nM Alexa 647-modified clone, 2 hours @ 37° C., flow cytometry, PC-3): 460; Fold increase ([1]; Table 9, PC3, malignant): 5.8; Fold increase [2]: 19.0; Fold increase [3]: 3.2; Fold increase [4]: 11.7; Fold increase [5]: 11.4; Fold increase [6]: 2.7 |
